# Reference: patent US12263172B2, “Toll-like receptor agonists for use in the treatment of hepatitis b” (priority 2019, dated 2025)
# Test: embryofetal development in rats
# Type: in vivo
# Source text: Exposure increased more than dose-proportionally at low doses. Variability in exposure was high. • In vitro plasma protein binding was between 79.6% and 94.2% in animals and humans. Volume of distribution after intravenous dosing was high. […] Main metabolic pathways were oxygenation, hydrogenation, dehydrogenation, dealkylation, acetylation, glucuronidation, and/or glutathione conjugation. • In rats, >80% of drug-related material was found in feces, 11% to 20% in bile, and <4% in urine. […] There were no effects on embryofetal development up to 1 mg/kg/dose in rats and 30 mg/kg/dose in rabbits.
compound,measurement,setting,value
CCCCOc1nc(N)c2[nH]cc(Cc3ccc(CN4CCCC4)cc3)c2n1 [Compound 4],post-implantation loss and fetal weights,"pregnant rats, 3 mg/kg biw",Post-implantation loss and fetal weights effects were noted
same,dose without effects on embryofetal development,rats,up to 1 mg/kg/dose
